Where a name gives a salt, the structure may show the parent alone. Read-outs that look alike come from different tables or passages of the source.
What was measured:
[1] = test system: P388 cells; assay: Cytotoxicity (ATP-lite cell viability), P388; format: cell-based, murine; settings: Mus musculus; P388, 72 hours
Method: (§1) Cytotoxicity of compounds in multidrug resistant cells can be determined by administering compounds to cell lines that overexpress the multidrug resistance pump MDR-1 and determining the viability of the cell lines.
(§2) NCI-ADR/Res, MCF-7, P388, and P388/ADR cell lines were obtained from American Type Culture Collection (Manassas, Va.) and maintained in RPMI-1640 media supplemented with 10% FCS, 10 units/ml penicillin and streptomycin, 2 mM Glutamax and 1 mM sodium pyruvate (Invitrogen Corporation, Carlsbad, Calif.). For compound testing, cells were plated in 96 well dishes at a concentration of 1.5×10^4 cells/well. Cells were allowed to adhere to the plate overnight and then incubated with compounds at final concentrations ranging from 0.13 nM to 10 uM for 72 hours. Cell viability was then assessed using the ATP-lite reagent (Perkin Elmer, Foster City, Calif.). Plates were read on a Wallac Topcount luminescence reader (Perkin Elmer, Foster City, Calif.) and the results graphed in Prism software (Graphpad Software, Inc., San Diego, Calif.). Non-linear regression with variable slope analysis was performed to obtain IC50 concentration values.
(§3) Example 1 compound, docetaxel, and vinblastine were tested for their ability to kill multidrug resistant cells by administering the compounds to NCI-ADR/Res, MCF-7 cells, P388 and P388/ADR cells and determining the viability of the cells.

[2] = test system: P388/ADR cells; assay: Cytotoxicity (ATP-lite cell viability), MDR-1 over-expressing P388/ADR; format: cell-based; settings: Mus musculus, 72 hours
Method: as §1, §2, §3

[3] = test system: NCI-ADR/Res cells; assay: Cytotoxicity (ATP-lite cell viability), MDR-1 over-expressing NCI-ADR/Res; format: cell-based; settings: Homo sapiens, 72 hours
Method: as §1, §2, §3

[4] = test system: MCF-7 cells; assay: Cytotoxicity (ATP-lite cell viability), MCF-7; format: cell-based; settings: Homo sapiens, MCF7; MCF-7, 72 hours
Method: as §1, §2, §3

[5] = biological target: tubulin (Bos taurus, UniProt P81947+Q6B856); assay: Inhibition of tubulin polymerization (DAPI fluorescence); format: biochemical; settings: MAP-rich tubulin, 30 minutes at 37° C.
Method: Lyophilized tubulin (Cytoskeleton #ML113, 1 mg, MAP-rich) was assayed for the effect of the test compound on tubulin polymerization as measured by change in fluorescence for 4′,6-diamidino-2-phenylindole (DAPI) (Barron, D. M. et al. Analytical Biochem., 2003, 315, 49-56). 1 μl of serial dilutions of each test compound (from 100×DMSO stock) was added in 96 well plate format and preincubated for 30 minutes with 94 ul of the non-GTP supplemented tubulin supernatant. 5 μl of DAPI/GTP solution was added to initiate polymerization and incubated for 30 minutes at 37° C. Fluorescence was read with excitation 350 nm, emission wavelength 485 nm on a Tecan Spectraflour Plus. Polymerized tubulin (DMSO and with the tubulin stabilizer Taxol® (paclitaxel)) gives a higher DAPI fluorescence as compared to non-polymerized tubulin (vinblastine and colchicine used to determine baseline).

[6] = test system: DLD cells; assay: Inhibition of cell proliferation (GI50), CellTiter-Glo, DLD; format: cell-based; settings: Homo sapiens; DLD, 48 h; read-out: GI50
Method: (§4) T-47D, DLD, H1299, MX-1 and SW620 cells were grown and harvested as in Example 262. […] An aliquot of 45 μL of cells was added to a well of a 96-well microtiter plate containing 5 μL of a 10% DMSO in RPMI-1640 media solution without compound as the control sample for maximal cell proliferation (Lmax). The samples were mixed by agitation and then incubated at 37° C. for 48 h in a 5% CO2—95% humidity incubator. After incubation, the samples were removed from the incubator and 25 μL of CellTiter-Glo™ reagent (Promega) was added. The samples were mixed by agitation and incubated at room temeperature for 10-15 min. Plates were then read using a luminescent plate reader (Model SPECTRAfluor Plus, Tecan) to give Ltest values.
(§5) The samples were mixed by agitation and then incubated at 37° C. for 0.5 h in a 5% CO2—95% humidity incubator. After incubation, the samples were removed from the incubator and 25 μL of CellTiter-Glo™ reagent (Promega) was added. The samples were mixed by agitation and incubated at 37° C. for 10-15 min at room temperature in a 5% CO2—95% humidity incubator. Fluorescence was read as above, (LStart) defining luminescence for initial cell number used as baseline in GI50 determinations.

[7] = test system: T-47D cells; assay: Inhibition of cell proliferation (GI50), CellTiter-Glo, T-47D; format: cell-based; settings: Homo sapiens, T47D; T-47D, 48 h; read-out: GI50
Method: as §4, §5

[8] = test system: SW620 cells; assay: Inhibition of cell proliferation (GI50), CellTiter-Glo, SW620; format: cell-based; settings: Homo sapiens, SW-620; SW620, 48 h; read-out: GI50
Method: as §4, §5

[9] = test system: MX-1 cells; assay: Inhibition of cell proliferation (GI50), CellTiter-Glo, MX-1; format: cell-based; settings: Homo sapiens, MX1; MX-1, 48 h; read-out: GI50
Method: as §4, §5

[10] = test system: T-47D cells; assay: Caspase cascade activation / induction of apoptosis in T-47D cells (fluorogenic N-(Ac-DEVD)-N'-ethoxycarbonyl-R110 substrate); format: cell-based, human; settings: Homo sapiens, T47D
[11] = test system: H1299 cells; assay: Inhibition of cell proliferation (GI50), CellTiter-Glo, H1299; format: cell-based; settings: Homo sapiens, NCI-H1299, 48 h; read-out: GI50
Method: as §4, §5

[12] = biological target: tyrosine kinase of Epidermal Growth Factor Receptor (Homo sapiens, UniProt P00533); settings: Bridges et al. 1996; read-out: IC50 EGFR tyrosine kinase; cited from earlier work
[13] = biological target: T1, topoisomerase I (Homo sapiens, UniProt P11387); assay: Topoisomerase I activity assay (relaxation of supercoiled DNA, gel); settings: Form I DNA, varying concentrations, FIG. 2
T1 sequence (P11387 1-765): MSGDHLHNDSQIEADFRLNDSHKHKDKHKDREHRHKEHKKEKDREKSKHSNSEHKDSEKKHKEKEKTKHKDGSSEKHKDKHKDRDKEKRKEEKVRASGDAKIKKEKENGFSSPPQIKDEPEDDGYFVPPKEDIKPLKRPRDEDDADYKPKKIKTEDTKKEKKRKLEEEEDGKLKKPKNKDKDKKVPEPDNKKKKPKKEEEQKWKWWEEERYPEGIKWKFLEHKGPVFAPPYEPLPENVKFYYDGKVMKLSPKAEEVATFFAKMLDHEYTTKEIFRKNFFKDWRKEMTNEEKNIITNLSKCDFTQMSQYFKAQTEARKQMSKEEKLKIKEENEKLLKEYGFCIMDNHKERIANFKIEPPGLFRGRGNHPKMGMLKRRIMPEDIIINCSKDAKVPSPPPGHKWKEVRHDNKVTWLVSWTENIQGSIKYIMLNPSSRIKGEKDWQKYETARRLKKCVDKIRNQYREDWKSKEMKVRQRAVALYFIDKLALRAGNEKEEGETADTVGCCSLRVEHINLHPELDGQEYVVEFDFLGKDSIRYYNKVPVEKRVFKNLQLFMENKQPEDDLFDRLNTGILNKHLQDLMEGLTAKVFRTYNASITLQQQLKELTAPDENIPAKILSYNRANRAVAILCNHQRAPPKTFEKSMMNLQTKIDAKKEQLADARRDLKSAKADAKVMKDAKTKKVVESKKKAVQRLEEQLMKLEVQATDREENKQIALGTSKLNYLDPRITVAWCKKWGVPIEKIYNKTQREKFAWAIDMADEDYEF

[14] = T-47D, 24 hr, read-out: T-47D (24 hr) EC50
[15] = T-47D, 48 hr, read-out: T-47D (48 hr) EC50
[16] = Table III, time not given, repeats 24 hr or 48 hr T-47D values of Table I, read-out: Caspase activation (EC50 nM)

Sequence of tubulin (P81947 whole entry): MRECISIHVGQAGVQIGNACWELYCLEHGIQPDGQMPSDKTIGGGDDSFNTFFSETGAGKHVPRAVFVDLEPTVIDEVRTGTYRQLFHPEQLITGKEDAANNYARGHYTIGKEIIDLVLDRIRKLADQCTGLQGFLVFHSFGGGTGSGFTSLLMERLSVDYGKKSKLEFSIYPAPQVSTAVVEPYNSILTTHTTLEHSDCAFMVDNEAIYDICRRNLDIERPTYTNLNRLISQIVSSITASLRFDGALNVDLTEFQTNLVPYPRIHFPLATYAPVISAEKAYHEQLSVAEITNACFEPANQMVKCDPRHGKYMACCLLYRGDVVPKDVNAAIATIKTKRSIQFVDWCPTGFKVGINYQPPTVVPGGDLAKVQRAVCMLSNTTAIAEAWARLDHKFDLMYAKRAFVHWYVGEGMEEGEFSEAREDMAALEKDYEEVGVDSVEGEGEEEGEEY
Sequence of tubulin (Q6B856 whole entry): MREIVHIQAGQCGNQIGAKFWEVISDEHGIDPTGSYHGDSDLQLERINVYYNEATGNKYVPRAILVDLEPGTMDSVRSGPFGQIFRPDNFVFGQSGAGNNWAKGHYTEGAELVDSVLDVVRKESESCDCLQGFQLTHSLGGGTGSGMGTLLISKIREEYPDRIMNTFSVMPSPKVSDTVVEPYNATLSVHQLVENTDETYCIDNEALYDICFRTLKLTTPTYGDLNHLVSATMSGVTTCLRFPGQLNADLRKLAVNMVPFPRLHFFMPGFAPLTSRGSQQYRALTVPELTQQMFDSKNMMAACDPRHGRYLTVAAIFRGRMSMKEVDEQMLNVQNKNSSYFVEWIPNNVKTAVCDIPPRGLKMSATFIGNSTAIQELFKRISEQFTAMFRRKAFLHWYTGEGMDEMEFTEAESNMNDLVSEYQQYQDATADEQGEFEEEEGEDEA
Sequence of tyrosine kinase of Epidermal Growth Factor Receptor (P00533 25-1210): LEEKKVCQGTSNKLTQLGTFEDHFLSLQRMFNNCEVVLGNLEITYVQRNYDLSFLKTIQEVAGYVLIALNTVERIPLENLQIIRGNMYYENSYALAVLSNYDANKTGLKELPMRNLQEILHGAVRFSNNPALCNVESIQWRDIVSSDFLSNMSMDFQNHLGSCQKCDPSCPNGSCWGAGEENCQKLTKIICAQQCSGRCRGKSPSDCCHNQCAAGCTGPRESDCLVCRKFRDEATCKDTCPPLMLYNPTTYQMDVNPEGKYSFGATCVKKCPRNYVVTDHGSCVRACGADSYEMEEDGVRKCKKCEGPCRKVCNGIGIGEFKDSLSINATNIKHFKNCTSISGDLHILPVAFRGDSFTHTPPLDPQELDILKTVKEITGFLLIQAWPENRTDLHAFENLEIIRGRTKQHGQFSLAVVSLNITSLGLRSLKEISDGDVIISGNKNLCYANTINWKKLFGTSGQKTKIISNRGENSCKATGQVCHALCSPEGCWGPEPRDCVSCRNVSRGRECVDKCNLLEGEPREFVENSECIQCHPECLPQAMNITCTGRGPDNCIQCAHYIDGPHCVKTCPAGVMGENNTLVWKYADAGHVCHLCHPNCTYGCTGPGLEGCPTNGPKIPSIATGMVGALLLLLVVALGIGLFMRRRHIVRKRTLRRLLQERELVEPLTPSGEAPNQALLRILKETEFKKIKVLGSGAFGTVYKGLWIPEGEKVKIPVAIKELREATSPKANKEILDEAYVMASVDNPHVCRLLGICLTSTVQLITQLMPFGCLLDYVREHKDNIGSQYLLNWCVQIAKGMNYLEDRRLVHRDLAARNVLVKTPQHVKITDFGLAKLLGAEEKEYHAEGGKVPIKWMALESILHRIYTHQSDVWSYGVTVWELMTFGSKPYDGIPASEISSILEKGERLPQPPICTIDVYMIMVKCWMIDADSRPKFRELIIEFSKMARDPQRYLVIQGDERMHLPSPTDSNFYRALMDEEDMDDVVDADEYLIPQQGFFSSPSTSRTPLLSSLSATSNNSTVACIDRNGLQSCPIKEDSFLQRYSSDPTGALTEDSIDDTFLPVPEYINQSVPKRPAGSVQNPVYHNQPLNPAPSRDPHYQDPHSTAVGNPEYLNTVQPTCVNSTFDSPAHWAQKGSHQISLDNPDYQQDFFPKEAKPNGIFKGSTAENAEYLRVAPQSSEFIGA

SMILES	IC50 [5] [nM]	EC50 [10, 14] [nM]	EC50 [10, 15] [nM]	EC50 [10, 16] [nM]	other results
CC(=O)O[C@@]12CO[C@@H]1C[C@H](O)[C@@]1(C)C(=O)[C@H](O)C3=C(C)[C@@H](OC(=O)[C@H](O)[C@@H](NC(=O)OC(C)(C)C)c4ccccc4)C[C@@](O)([C@@H](OC(=O)c4ccccc4)[C@H]21)C3(C)C [Docetaxel, docetaxel]					IC50 [1]: 7 nM; IC50 [2]: 127 nM; IC50 [3]: 410 nM; IC50 [4]: 2 nM
COc1ccc(Nc2nc(Cl)nc3ccccc23)cc1 [Example 7, (2-Chloro-quinazolin-4-yl)-(4-methoxy-phenyl)-amine]	> 50000	> 10000	> 10000	> 10000	GI50 [6]: > 10000 nM; GI50 [7]: > 10000 nM; GI50 [8]: > 10000 nM; GI50 [9]: > 10000 nM; GI50 [11]: > 10000 nM
COc1ccc(N(C)c2nc(Cl)nc3cc(OC)c(OC)cc23)cc1 [Example 20, (2-Chloro-6,7-dimethoxyquinazolin-4-yl)-(4-methoxy-phenyl)-methyl-amine]	3000	161		161	
COc1ccc(N(C)c2ncnc3c2CCCC3)cc1 [Example 25, (5,6,7,8-Tetrahydro-quinazolin-4-yl)-(4-methoxy-phenyl)-methyl-amine]	2000		42	42	
COc1ccc(OC)c(Nc2nc(Cl)nc3ccccc23)c1 [Example 31, (2-Chloro-quinazolin-4-yl)-(2,5-dimethoxy-phenyl)-amine]	10000	317	563	317	
Cc1ccc(N(C)c2ncnc3ccccc23)cc1 [Example 35, (4-Methyl-phenyl)-methyl-quinazolin-4-yl-amine]	4000	141		141	
COc1ccc(N(C)c2nc(Cl)nc3ccccc23)cn1 [Example 36, (2-Chloro-quinazolin-4-yl)-(6-methoxy-pyridin-3-yl)-methyl-amine]	< 1000	6		6	GI50 [6]: 89 nM; GI50 [7]: 111 nM; GI50 [8]: 70 nM; GI50 [9]: 73 nM; GI50 [11]: 53 nM
COc1ccc(N(C)c2nc(Cl)nc3ccccc23)c(OC)c1 [Example 41, (2-Chloro-quinazolin-4-yl)-(2,4-dimethoxy-phenyl)-methyl-amine]	< 1000		20	20	
COc1ccc(OC)c(N(C)c2nc(Cl)nc3ccccc23)c1 [Example 42, (2-Chloro-quinazolin-4-yl)-(2,5-dimethoxy-phenyl)-methyl-amine]	5000	282	265	282	
COc1cccc(N(C)c2nc(Cl)nc3ccccc23)c1 [Example 43, (2-Chloro-quinazolin-4-yl)-(3-methoxy-phenyl)-methyl-amine]	2000		34	34	
COc1ccccc1N(C)c1nc(Cl)nc2ccccc12 [Example 44, (2-Chloro-quinazolin-4-yl)-(2-methoxy-phenyl)-methyl-amine]	10000		501	501	
COc1ccc(N(C)c2nccc3ccccc23)cc1 [Example 65, (Isoquinolin-1-yl)-(4-methoxy-phenyl)-methyl-amine]	10000		599	599	
COc1ccc(N(C)c2nc(C)nc3ccccc23)cc1 [Example 72, (4-Methoxy-phenyl)-methyl-(2-methyl-quinazolin-4-yl)-amine hydrochloride]	< 1000				EC50 ([10]; 24 h, read-out: T-47D (24 hr) EC50 (nM)): 2 nM; EC50 ([10]; 48 h, read-out: T-47D (48 hr) EC50 (nM)): 2 nM; EC50 ([10]; read-out: Caspase activation (EC50 nM)): 2 nM
COc1cc2nc(C)nc(Nc3cccc(Br)c3)c2cc1OC [R1=Me, R2=3′-Br, R3═H]					IC50 [12]: > 10000 nM
COc1cc2nc(N)nc(Nc3cccc(Br)c3)c2cc1OC [R1═NH2, R2=3′-Br, R3═H]					IC50 [12]: > 10000 nM
COc1cc([C@@H]2c3cc4c(cc3[C@@H](O[C@@H]3O[C@@H]5CO[C@@H](C)O[C@H]5[C@H](O)[C@H]3O)[C@H]3COC(=O)[C@H]23)OCO4)cc(OC)c1O [VP-16, etoposide, reference compound]					Effect on topoisomerase I-dependent relaxation of supercoiled DNA [13]: no apparent effect on topoisomerase I activity
CC[C@]1(O)C[C@@H]2CN(CCc3c([nH]c4ccccc34)[C@@](C(=O)OC)(c3cc4c(cc3OC)N(C)[C@H]3[C@@](O)(C(=O)OC)[C@H](OC(C)=O)[C@]5(CC)C=CCN6CC[C@]43[C@@H]65)C2)C1 [Vinblastine, vinblastine]					IC50 [1]: 2.6 nM; IC50 [2]: 2.8 nM; IC50 [3]: 3 nM; IC50 [4]: 0.5 nM

From patent US20130029942A1, “COMPOUNDS AND THERAPEUTICAL USES THEREOF” (Myrexis, Inc., priority 2003, published 2013)
